Bridges are numbered along the chain shown (N, C = ends). Where no end group is shown, it is not given here.
Assays:
[1] = NIR fluorescence emission spectra of the probes; type: physicochemical; details: excitation of 777 nm
Experimental: Triethylamine (65.3 μL, 0.467 mmol) and 3-mercaptopropionic acid (40.7 μL, 0.467 mmol) were added to a solution of IR-783 (250 mg, 0.33 mmol) in 6 mL of anhydrous dimethylformamide (“DMF”). The resulting green solution was stirred in the dark at room temperature. The conversion reaction of IR783 to CyTE777 was complete after 21 h, as monitored by high-performance liquid chromatography (“HPLC”). A green solid was isolated through precipitation with ether at 4° C. and was washed with 3 mL cold ether. The precipitate was dissolved in water and dried under vacuum.
The augmented fluorescence intensity indicated completed conjugation.
Pamidronate (“PAM”) was attached to the carboxylate surface of nanoAu to form nanoAu-Pam directly or using a zero-length crosslinking agent, i.e., 1-ethyl-3-[3-dimethyl-aminopropyl] carbodiimide hydrochloride (“EDC”). Briefly, equal volumes of nanoAu (40 mM), pamidronate (3 mM), and EDC (80 mM) were mixed at room temperature for 2 h. To concentrate the nanoAu-Pam, the reaction was loaded on a 30 kDa molecular sieve (Amicon) and centrifuged at 3000 rpm for 10 min. The solution was centrifuged twice and washed with phosphate-buffered saline (“PBS”) to remove any unbound reactants. […] The fluorescence intensity of excitation spectra was recorded using an Edinburgh FL 900 CDT Time-Resolved Fluorometer (Edinburgh Analytical Instruments, Livingston, UK).

[2] = statement on the purchased dye; cited from earlier work
[3] = test system: osteoblastic-differentiated MSC culture; assay: Calcein staining for calcium deposition in osteogenically induced MSC culture; type: cell-based; details: MSC culture after 21 days of osteogenic induction
Experimental: For osteogenic induction, MSCs were cultured in 24-well plates in DMEM/LG medium supplemented with 10% FBS, 100 units/mL penicillin, 100 μg/mL streptomycin, 50 μg/ml L-ascorbate-2-phosphate, 10^−7 M dexamethasone and 10 mM β-glycero-phosphate at 37° C., 5% CO2. Cells were also stained with calcein using a standard protocol to confirm calcium deposition in the culture. A 10x calcein/PBS staining solution was added to each well without medium change. The cells were incubated at 37° C., 5% CO2 overnight, washed twice with PBS, fixed with formaldehyde, and observed by fluorescence microscopy.

undifferentiated MSCs [4] = assay: Calcein staining of undifferentiated MSCs; type: cell-based
Experimental: Cells were also stained with calcein using a standard protocol to confirm calcium deposition in the culture. A 10x calcein/PBS staining solution was added to each well without medium change. The cells were incubated at 37° C., 5% CO2 overnight, washed twice with PBS, fixed with formaldehyde, and observed by fluorescence microscopy.

[5] = test system: osteoblastic-induced MSCs (α5β1); assay: Binding specificity of α5β1L-CyTE777 in osteoblastic-induced MSCs, confocal microscopy; type: cell-based; details: osteoblastic-induced MSC
Experimental: (§1) To determine the binding specificity of α5β1L-CyTE777, undifferentiated MSCs or osteoblastic-induced MSCs were cultured in 24-well plates in DMEM/LG supplemented with 10% FBS. α5β1L-CyTE777 was applied to the cultures to detect binding to α5β1 . Cultures incubated with α5β1L-CyTE777 were washed with PBS twice and analyzed by confocal microscopy after staining nuclei with diamidinophenylindole (“DAPI”).

undifferentiated MSCs [6] = assay: Binding specificity of α5β1L-CyTE777 in undifferentiated MSCs, confocal microscopy; type: cell-based; details: undifferentiated MSC
Experimental: as §1

CC1(C)C(=CC=C2CCCC(C=CC3=[N+](CCCCS(=O)(=O)[O-])c4ccccc4C3(C)C)=C2SCCC(=O)O)N(CCCCS(=O)(=O)[O-])c2ccccc21.[Na+] [CyTE777]
NIR emission peak [1]: 820 nm

CC1(C)C(=CC=C2CCCC(C=CC3=[N+](CCCCS(=O)(=O)[O-])c4ccccc4C3(C)C)=C2Cl)N(CCCCS(=O)(=O)[O-])c2ccccc21.[Na+] [IR783]
cell toxicity [2]: minimal cell toxicity

O=C(O)CN(CC(=O)O)Cc1cc2c(cc1O)Oc1cc(O)c(CN(CC(=O)O)CC(=O)O)cc1C21OC(=O)c2ccccc21 [calcein]
calcein staining (calcium deposition) [3]: positive staining | calcein staining (calcium deposition) (undifferentiated MSCs [4]): No calcein staining

α5β1L-CyTE777: CyTE777 conjugated to the N-terminal glycine NH2 of disulfide-cyclised peptide GGCRRETAWAC (SEQ ID NO: 1) (CyTE777-GGCRRETAWAC; disulfide 3-11 (inferred))
NIR emission peak [1]: 820 nm | fluorescent signal of cells incubated with probe [5]: strong NIR fluorescence at 820 nm | fluorescent signal of cells incubated with probe (undifferentiated MSCs [6]): did not show any fluorescent signal
